IC50 data for 21 molecules are collected here from patent publication US9725445B2, “Cycloalkyl nitrile pyrazolo pyridones as Janus kinase inhibitors” (Merck Sharp & Dohme Corp., priority 2013, dated 2017).

One assay concerns the target JAK1 (Homo sapiens (Human), UniProt P23458). The assay can be described thus: Jak biochemical HTRF assay, JAK1. As to conditions: HTRF biochemical assay, recombinant GST-tagged catalytic domain; read-out: JAK1 IC50. (In general: In TR-FRET formats the signal depends on donor and acceptor labels being close together.)
The next assay deals with JAK2 (Homo sapiens (Human), UniProt O60674). As to the kind of experiment: Jak biochemical HTRF assay, JAK2. Particulars: HTRF biochemical assay, recombinant GST-tagged catalytic domain; read-out: JAK2 IC50. The procedure: Jak Biochemical HTRF Assay Protocol
Chain of JAK2 (O60674 849-1124): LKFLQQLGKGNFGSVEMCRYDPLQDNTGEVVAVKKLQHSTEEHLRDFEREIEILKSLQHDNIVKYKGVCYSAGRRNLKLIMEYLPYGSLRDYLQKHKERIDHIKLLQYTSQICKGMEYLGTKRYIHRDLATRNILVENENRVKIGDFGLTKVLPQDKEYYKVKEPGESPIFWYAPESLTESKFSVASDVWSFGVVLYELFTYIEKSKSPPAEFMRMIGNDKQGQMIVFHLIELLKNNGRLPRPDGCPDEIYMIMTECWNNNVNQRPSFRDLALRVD
The ability of compounds to inhibit the activity of JAK1, JAK2, JAK3, and Tyk2 was measured using a recombinant purified GST-tagged catalytic domain for each enzyme (Invitrogen JAK1 #M4290, JAK2 #M4290, JAK3 #M4290, Tyk2 #M4290) in an HTRF format biochemical assay. […] The basic assay protocol is as follows: First, 250 nL of diluted compounds in DMSO were dispensed into the wells of a dry 384-well Black plate (Greiner #781076) using a Labcyte Echo 555 acoustic dispenser. Subsequent reagent additions employed an Agilent Bravo. […] After equilibration, 2 μL of 10×ATP in 1× assay buffer was added to initiate the kinase reaction and the plates were shaken and then incubated at room temperature for 120 minutes. […] Plates were shaken and centrifuged and then incubated 60 minutes at room temperature and then read on a Perkin Elmer Envision (λex=337 nm, λem=665 and 615 nm, TRF delay time=20 μs). HTRF signal=10,000*665 nm reading/615 nm reading. After normalization to untreated controls, the percent inhibition of the HTRF signal at each compound concentration was calculated. The plot of percent inhibition versus the log of compound concentration was fit with a 4-parameter dose response equation to calculate IC50 values.
Final Reaction Conditions were:
Examples of the instant invention were evaluated in JAK1 and JAK2 in vitro binding assays.

Chain of JAK1 (P23458 875-1153): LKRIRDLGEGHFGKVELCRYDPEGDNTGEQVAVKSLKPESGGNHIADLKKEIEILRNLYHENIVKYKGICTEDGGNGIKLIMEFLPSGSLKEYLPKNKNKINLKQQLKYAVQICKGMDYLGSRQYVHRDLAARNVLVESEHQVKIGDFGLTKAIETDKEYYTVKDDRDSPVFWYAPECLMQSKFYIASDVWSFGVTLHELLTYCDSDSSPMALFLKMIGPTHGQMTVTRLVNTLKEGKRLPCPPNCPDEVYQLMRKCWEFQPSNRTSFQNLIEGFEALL

As a reminder, the IC50 is the point on the concentration scale where inhibition reaches its midpoint. Turning to `N#C[C@H]1CCCC[C@@H]1n1nc(Nc2ccc(-c3ncon3)cc2)c2c(=O)[nH]ccc21` [Example 15-3, (1S,2S)-2-(3-{[4-(1,2,4-oxadiazol-3-yl)phenyl]amino}-4-oxo-4,5-dihydro-1H-pyrazolo[4,3-c]pyridin-1-yl)cyclohexanecarbonitrile], the IC50 at JAK1 was 0.51 nM; at JAK2, 3.6 nM.
As to `N#C[C@H]1CCCC[C@@H]1n1nc(Nc2ccc3c(c2)CN(CCO)S3(=O)=O)c2c(=O)[nH]ccc21` [Example 3-80, (1S,2S)-2-(3-{[2-(2-hydroxyethyl)-1,1-dioxido-2,3-dihydro-1,2-benzisothiazol-5-yl]amino}-4-oxo-4,5-dihydro-1H-pyrazolo[4,3-c]pyridin-1-yl)cyclohexanecarbonitrile], the IC50 on JAK1 came out at 0.079 nM; on JAK2, 0.92 nM.
As for `CC(=O)N1Cc2ccc(Nc3nn([C@H]4CCCC[C@@H]4C#N)c4cc[nH]c(=O)c34)cc2C1` [Example 15-26, (1S,2S)-2-{3-[(2-acetyl-2,3-dihydro-1H-isoindol-5-yl)amino]-4-oxo-4,5-dihydro-1H-pyrazolo[4,3-c]pyridin-1-yl}cyclohexanecarbonitrile], the results for the IC50 at JAK1 and on JAK2 were 0.23 nM and 0.92 nM, respectively.
For the molecule `N#C[C@H]1CCCC[C@@H]1n1nc(Nc2ccc3c(c2)CN(C2CCSCC2)C3=O)c2c(=O)[nH]ccc21` [Example 15-60, (1S,2S)-2-(4-oxo-3-{[1-oxo-2-(tetrahydro-2H-thiopyran-4-yl)-2,3-dihydro-1H-isoindol-5-yl]amino}-4,5-dihydro-1H-pyrazolo[4,3-c]pyridin-1-yl)cyclohexanecarbonitrile], the IC50 was determined as 0.11 nM at JAK1 and 0.51 nM at JAK2.
As to `CN(C)[C@H]1CC[C@H](n2nc(Nc3ccc(OC(F)(F)F)cc3)c3c(=O)[nH]ccc32)[C@@H](C#N)C1` [Example 5-26, (1S,2S,5S)-5-(dimethylamino)-2-(4-oxo-3-((4-(trifluoromethoxy)phenyl)amino)-4,5-dihydro-1H-pyrazolo[4,3-c]pyridin-1-yl)cyclohexanecarbonitrile], the IC50 worked out at 0.33 nM at JAK1 and 7 nM on JAK2.
Take `CC(C)(C)OC(=O)C(C)(C)N1Cc2cc(Nc3nn([C@H]4CCCC[C@@H]4C#N)c4cc[nH]c(=O)c34)ccc2S1(=O)=O` [Example 3-152, tert-butyl 2-[5-({1-[(1S,2S)-2-cyanocyclohexyl]-4-oxo-4,5-dihydro-1H-pyrazolo[4,3-c]pyridin-3-yl}amino)-1,1-dioxido-1,2-benzisothiazol-2(3H)-yl]-2-methylpropanoate]: the IC50 on JAK1 worked out at 0.1 nM; at JAK2 it was 0.77 nM.
Take `CN1Cc2ccc(Nc3nn([C@H]4CCCC[C@@H]4C#N)c4cc[nH]c(=O)c34)cc2C1` [Example 3-64, (1S,2S)-2-{3-[(2-methyl-2,3-dihydro-1H-isoindol-5-yl)amino]-4-oxo-4,5-dihydro-1H-pyrazolo[4,3-c]pyridin-1-yl}cyclohexanecarbonitrile]: the concentration for half-maximal inhibition (IC50) at JAK1 amounted to 0.39 nM; at JAK2 it was 1.6 nM.
The corresponding values for `C[C@H](NC1CCC(n2nc(Nc3ccc(Cl)cc3)c3c(=O)[nH]ccc32)C(C#N)C1)C1CC1` (stereo in doubt) [Example 4-4, (1S,2S,5S)-2-(3-((4-Chlorophenyl)amino)-4-oxo-4,5-dihydro-1H-pyrazolo[4,3-c]pyridin-1-yl)-5-(((S)-1-cyclopropylethyl)amino)cyclohexanecarbonitrile] are 7.8 nM and 525 nM.
`N#C[C@H]1CCCC[C@@H]1n1nc(Nc2ccc3c(c2)CN(CC(F)(F)F)C3=O)c2c(=O)[nH]ccc21` [Example 3-10, (1S,2S)-2-(4-oxo-3-{[1-oxo-2-(2,2,2-trifluoroethyl)-2,3-dihydro-1H-isoindol-5-yl]amino}-4,5-dihydro-1H-pyrazolo[4,3-c]pyridin-1-yl)cyclohexanecarbonitrile]: the IC50 is 0.12 nM at JAK1 and 0.43 nM on JAK2.
The corresponding values for `CC1c2ccc(Nc3nn([C@H]4CCCC[C@@H]4C#N)c4cc[nH]c(=O)c34)cc2CN1C(=O)OC(C)(C)C` (stereo partly drawn) [Example 18-1, tert-Butyl 5-((1-((1S,2S)-2-cyanocyclohexyl)-4-oxo-4,5-dihydro-1H-pyrazolo[4,3-c]pyridin-3-yl)amino)-1-methylisoindoline-2-carboxylate] are 1.3 nM and 5.4 nM.
The corresponding values for `CC(O)(CO)c1cc(Nc2nn([C@H]3CCCC[C@@H]3C#N)c3cc[nH]c(=O)c23)ccc1S(C)(=O)=O` (stereo partly drawn) [Example 3-87, (1S,2S)-2-(3-{[3-(1,2-dihydroxy-1-methylethyl)-4-(methylsulfonyl)phenyl]amino}-4-oxo-4,5-dihydro-1H-pyrazolo[4,3-c]pyridin-1-yl)cyclohexanecarbonitrile] are 0.25 nM and 0.95 nM.
As for `CC(C)C(c1ccc(Nc2nn([C@H]3CCCC[C@@H]3C#N)c3cc[nH]c(=O)c23)cc1)n1ccnn1` (single isomer, unassigned) [Example 15-23, (1S,2S)-2-[3-({4-[(1R or 1S)-2-methyl-1-(1H-1,2,3-triazol-1-yl)propyl]phenyl}amino)-4-oxo-4,5-dihydro-1H-pyrazolo[4,3-c]pyridin-1-yl]cyclohexanecarbonitrile], the half-inhibitory concentration (IC50) at JAK2 is 0.25 nM.
Take `N#C[C@H]1CCCCC[C@@H]1n1nc(Nc2ccc3c(c2)CN(C2CCCC2)C3=O)c2c(=O)[nH]ccc21` (single isomer, unassigned) [Example 15-50, (1S,2S or 1R,2R)-2-{3-[(2-cyclopentyl-1-oxo-2,3-dihydro-1H-isoindol-5-yl)amino]-4-oxo-4,5-dihydro-1H-pyrazolo[4,3-c]pyridin-1-yl}cycloheptanecarbonitrile]: on JAK2, the IC50 came out at 14 nM.
The same measure, in the same setting: to `CC(C)(C)S(=O)(=O)c1ccc(Nc2nn([C@@H]3CC(F)(F)C[C@@H]3C#N)c3cc[nH]c(=O)c23)cc1` (single isomer, unassigned) [Example 22-2, (1S,2R or 1R,2S)-2-(3-((4-(tert-Butylsulfonyl)phenyl)amino)-4-oxo-4,5-dihydro-1H-pyrazolo[4,3-c]pyridin-1-yl)-4,4-difluorocyclopentanecarbonitrile] belongs 21 nM.
The same measure, in the same setting: the same measure for `C[C@H](N[C@@H]1CC[C@H](n2nc(Nc3ccc(Cl)c(F)c3)c3c(=O)[nH]ccc32)[C@@H](C#N)C1)C1CC1` [Example 5-5, (1S,2S,5R)-2-(3-((4-chloro-3-fluorophenyl)amino)-4-oxo-4,5-dihydro-1H-pyrazolo[4,3-c]pyridin-1-yl)-5-(((S)-1-cyclopropylethyl)amino)cyclohexanecarbonitrile]: 113 nM; for `CC(C)(C)S(=O)(=O)c1ccc(Nc2nn([C@@H]3CC(F)(F)C[C@H]3C#N)c3cc[nH]c(=O)c23)cc1` (single isomer, unassigned) [Example 22-3, (1R,2R or 1S,2S)-2-(3-{[4-(tert-butylsulfonyl)phenyl]amino}-4-oxo-4,5-dihydro-1H-pyrazolo[4,3-c]pyridin-1-yl)-4,4-difluorocyclopentanecarbonitrile]: 17 nM.
Same read-out and setting: the same measure for `CC(O)(c1ccc(Nc2nn([C@H]3CCC[C@@H]3C#N)c3cc[nH]c(=O)c23)cc1)C(F)(F)F` (single isomer, unassigned) [Example 3-138, (1S,2S)-2-[4-oxo-3-({4-[(1R or 1S)-2,2,2-trifluoro-1-hydroxy-1-methylethyl]phenyl}amino)-4,5-dihydro-1H-pyrazolo[4,3-c]pyridin-1-yl]cyclopentanecarbonitrile]: 0.66 nM; for `CC(C)NC(c1ccc(Nc2nn([C@H]3CCC[C@@H]3C#N)c3cc[nH]c(=O)c23)cc1)C(F)(F)F` (single isomer, unassigned) [Example 3-115, (1S,2S)-2-{4-oxo-3-[(4-{(1R or 1S)-2,2,2-trifluoro-1-[(1-methylethyl)amino]ethyl}phenyl)amino]-4,5-dihydro-1H-pyrazolo[4,3-c]pyridin-1-yl}cyclopentanecarbonitrile]: 0.33 nM.
For `C[C@H](N[C@H]1CC[C@H](n2nc(Nc3ccc(Cl)c(F)c3)c3c(=O)[nH]ccc32)[C@@H](C#N)C1)C1CC1` [Example 5-6, (1S,2S,5S)-2-(3-((4-chloro-3-fluorophenyl)amino)-4-oxo-4,5-dihydro-1H-pyrazolo[4,3-c]pyridin-1-yl)-5-(((S)-1-cyclopropylethyl)amino)cyclohexanecarbonitrile], the IC50 at JAK2 was 55 nM.
Still for that read-out and setting: the same measure for `CC(C)(C)S(=O)(=O)c1ccc(Nc2nn([C@H]3CC(F)(F)C[C@@H]3C#N)c3cc[nH]c(=O)c23)cc1` (single isomer, unassigned) [Example 22-4, (1S,2S or 1R,2R)-2-(3-{[4-(tert-butylsulfonyl)phenyl]amino}-4-oxo-4,5-dihydro-1H-pyrazolo[4,3-c]pyridin-1-yl)-4,4-difluorocyclopentanecarbonitrile]: 0.35 nM; for `N#C[C@H]1CCCC[C@@H]1n1nc(Nc2ccc(C(O)C(F)F)cc2)c2c(=O)[nH]ccc21` (stereo partly drawn) [Example 3-70, (1S,2S)-2-(3-{[4-(2,2-difluoro-1-hydroxyethyl)phenyl]amino}-4-oxo-4,5-dihydro-1H-pyrazolo[4,3-c]pyridin-1-yl)cyclohexanecarbonitrile]: 0.61 nM.
